Test results taken from ChEMBL document CHEMBL1201862, “PubChem BioAssay data set” (2004).
Calls of active or inactive are those of the source.

Assays:
[1] = target: Serine/threonine-protein kinase D3 (Homo sapiens, UniProt O94806); type: functional;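 further: determined within a kinase panel screen, with PRKCN as the panel member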
[2] = target: High affinity nerve growth factor receptor (Homo sapiens, UniProt P04629); type: functional;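 further: NTRK1 tested as one member of a kinome-wide profiling panel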
[3] = target: Serine/threonine-protein kinase Nek4 (Homo sapiens, UniProt P51957); type: functional
[4] = target: Serine/threonine-protein kinase 3 (Homo sapiens, UniProt Q13188); type: functional;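 further: measured as one member of a kinome-wide kinase panel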
[5] = target: Ribosomal protein S6 kinase alpha-3 (Homo sapiens, UniProt P51812); type: functional;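 further: measured within a kinome-wide profiling panel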
[6] = target: Proto-oncogene tyrosine-protein kinase Src (Homo sapiens, UniProt P12931); type: functional;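 further: SRC entry within a kinome-wide kinase profiling panel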
[7] = target: Serine/threonine-protein kinase Nek2 (Homo sapiens, UniProt P51955); type: functional
Sequence of Serine/threonine-protein kinase Nek2 (P51955 whole entry): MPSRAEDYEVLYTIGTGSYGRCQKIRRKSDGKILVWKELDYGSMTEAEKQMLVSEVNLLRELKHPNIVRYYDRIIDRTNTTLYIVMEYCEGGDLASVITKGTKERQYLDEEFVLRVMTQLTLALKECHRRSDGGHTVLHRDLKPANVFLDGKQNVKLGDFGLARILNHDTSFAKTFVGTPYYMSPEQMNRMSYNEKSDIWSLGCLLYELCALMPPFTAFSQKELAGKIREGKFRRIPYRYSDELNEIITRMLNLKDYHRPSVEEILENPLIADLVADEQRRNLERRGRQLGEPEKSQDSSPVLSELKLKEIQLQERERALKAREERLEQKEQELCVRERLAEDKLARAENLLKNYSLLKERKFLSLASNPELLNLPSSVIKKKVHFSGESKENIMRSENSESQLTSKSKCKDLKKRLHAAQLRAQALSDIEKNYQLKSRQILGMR

[8] = target: MAP kinase-interacting serine/threonine-protein kinase 2 (Homo sapiens, UniProt Q9HBH9); type: functional
[9] = target: Epidermal growth factor receptor (Homo sapiens, UniProt P00533)
[10] = target: Lymphokine-activated killer T-cell-originated protein kinase (Homo sapiens, UniProt Q96KB5); type: functional;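 further: value comes from a kinase panel screen in which TOPK was one of the panel members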
[11] = target: Mitogen-activated protein kinase 13 (Homo sapiens, UniProt O15264); type: functional
[12] = target: cGMP-dependent protein kinase 1 (Homo sapiens, UniProt Q13976); type: functional;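 further: value from a kinome panel screen with PRKG1 as the panel member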
Sequence of cGMP-dependent protein kinase 1 (Q13976 whole entry): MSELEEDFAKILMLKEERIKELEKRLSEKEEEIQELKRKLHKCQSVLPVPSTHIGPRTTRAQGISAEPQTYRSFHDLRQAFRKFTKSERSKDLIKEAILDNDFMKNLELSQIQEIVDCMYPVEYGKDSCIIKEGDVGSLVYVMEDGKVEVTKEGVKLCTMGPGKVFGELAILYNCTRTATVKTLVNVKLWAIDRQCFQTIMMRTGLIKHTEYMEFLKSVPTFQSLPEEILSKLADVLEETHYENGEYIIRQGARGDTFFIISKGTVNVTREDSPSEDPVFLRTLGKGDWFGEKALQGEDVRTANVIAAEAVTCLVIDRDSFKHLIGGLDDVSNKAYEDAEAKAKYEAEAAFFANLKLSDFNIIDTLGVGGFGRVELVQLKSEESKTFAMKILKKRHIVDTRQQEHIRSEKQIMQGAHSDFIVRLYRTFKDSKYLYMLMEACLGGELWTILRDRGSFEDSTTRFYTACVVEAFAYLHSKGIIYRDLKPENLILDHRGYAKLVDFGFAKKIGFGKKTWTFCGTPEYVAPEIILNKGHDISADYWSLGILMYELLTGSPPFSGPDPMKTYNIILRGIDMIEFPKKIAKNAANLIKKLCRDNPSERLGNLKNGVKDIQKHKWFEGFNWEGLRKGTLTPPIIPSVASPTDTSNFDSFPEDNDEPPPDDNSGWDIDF

[13] = target: ALK tyrosine kinase receptor (Homo sapiens, UniProt Q9UM73); type: functional;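 further: ALK tested as one member of a kinase panel screen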
[14] = target: Tyrosine-protein kinase Fer (Homo sapiens, UniProt P16591); type: functional;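 further: FER tested as one member of a kinome panel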
Sequence of Tyrosine-protein kinase Fer (P16591 whole entry): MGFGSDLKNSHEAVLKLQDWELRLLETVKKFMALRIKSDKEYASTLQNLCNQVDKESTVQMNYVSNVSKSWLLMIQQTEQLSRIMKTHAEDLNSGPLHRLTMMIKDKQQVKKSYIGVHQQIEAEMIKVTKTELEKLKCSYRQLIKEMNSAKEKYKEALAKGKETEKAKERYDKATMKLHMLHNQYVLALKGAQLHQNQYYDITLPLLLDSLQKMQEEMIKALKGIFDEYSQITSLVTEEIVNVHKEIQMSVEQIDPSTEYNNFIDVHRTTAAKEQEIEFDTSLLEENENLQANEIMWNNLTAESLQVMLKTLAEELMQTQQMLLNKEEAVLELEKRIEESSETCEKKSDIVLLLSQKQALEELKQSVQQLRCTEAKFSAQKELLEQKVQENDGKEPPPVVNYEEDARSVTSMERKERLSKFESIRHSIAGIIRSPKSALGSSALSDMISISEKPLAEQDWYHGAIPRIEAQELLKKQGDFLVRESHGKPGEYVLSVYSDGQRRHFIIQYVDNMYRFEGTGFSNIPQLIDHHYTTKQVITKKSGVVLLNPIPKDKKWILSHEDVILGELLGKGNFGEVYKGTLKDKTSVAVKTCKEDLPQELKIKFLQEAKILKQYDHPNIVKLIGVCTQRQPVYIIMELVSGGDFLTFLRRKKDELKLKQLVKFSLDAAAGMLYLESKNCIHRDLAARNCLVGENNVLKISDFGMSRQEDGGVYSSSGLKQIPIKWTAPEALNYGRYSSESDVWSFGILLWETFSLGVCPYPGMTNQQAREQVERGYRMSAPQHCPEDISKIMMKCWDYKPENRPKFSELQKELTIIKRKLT

[15] = target: Tyrosine-protein kinase receptor UFO (Homo sapiens, UniProt P30530); type: functional
Sequence of Tyrosine-protein kinase receptor UFO (P30530 whole entry): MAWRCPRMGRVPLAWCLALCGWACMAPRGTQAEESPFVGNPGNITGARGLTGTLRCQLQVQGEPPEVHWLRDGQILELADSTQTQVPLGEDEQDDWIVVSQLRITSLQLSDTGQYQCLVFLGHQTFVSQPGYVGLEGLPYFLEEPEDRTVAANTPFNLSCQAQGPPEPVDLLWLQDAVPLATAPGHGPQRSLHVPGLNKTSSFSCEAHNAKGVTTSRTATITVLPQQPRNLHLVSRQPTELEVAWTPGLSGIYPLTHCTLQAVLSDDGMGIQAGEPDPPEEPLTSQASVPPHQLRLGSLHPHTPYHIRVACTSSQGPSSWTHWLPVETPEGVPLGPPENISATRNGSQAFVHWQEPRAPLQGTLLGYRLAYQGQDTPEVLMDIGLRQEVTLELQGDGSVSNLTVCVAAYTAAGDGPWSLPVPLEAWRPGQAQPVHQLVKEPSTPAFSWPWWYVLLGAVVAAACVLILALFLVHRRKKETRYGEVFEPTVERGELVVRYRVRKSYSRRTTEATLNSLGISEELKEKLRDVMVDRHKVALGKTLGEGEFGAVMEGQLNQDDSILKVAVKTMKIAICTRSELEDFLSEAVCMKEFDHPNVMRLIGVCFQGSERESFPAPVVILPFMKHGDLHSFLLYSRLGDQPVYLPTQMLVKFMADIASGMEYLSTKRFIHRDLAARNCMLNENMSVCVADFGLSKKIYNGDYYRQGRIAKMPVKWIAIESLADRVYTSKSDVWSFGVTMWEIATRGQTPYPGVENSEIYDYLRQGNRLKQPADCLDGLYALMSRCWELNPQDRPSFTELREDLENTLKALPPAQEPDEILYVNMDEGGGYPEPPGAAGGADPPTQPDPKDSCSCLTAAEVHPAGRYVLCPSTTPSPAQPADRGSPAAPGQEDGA

[16] = target: Tyrosine-protein kinase Lck (Homo sapiens, UniProt P06239); type: functional;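 further: lck was assayed as one member of a kinase panel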
[17] = target: RAC-alpha serine/threonine-protein kinase (Homo sapiens, UniProt P31749); type: functional;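 further: AKT1 affinity measured as one member of a kinome-wide kinase profiling panel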
Sequence of RAC-alpha serine/threonine-protein kinase (P31749 whole entry): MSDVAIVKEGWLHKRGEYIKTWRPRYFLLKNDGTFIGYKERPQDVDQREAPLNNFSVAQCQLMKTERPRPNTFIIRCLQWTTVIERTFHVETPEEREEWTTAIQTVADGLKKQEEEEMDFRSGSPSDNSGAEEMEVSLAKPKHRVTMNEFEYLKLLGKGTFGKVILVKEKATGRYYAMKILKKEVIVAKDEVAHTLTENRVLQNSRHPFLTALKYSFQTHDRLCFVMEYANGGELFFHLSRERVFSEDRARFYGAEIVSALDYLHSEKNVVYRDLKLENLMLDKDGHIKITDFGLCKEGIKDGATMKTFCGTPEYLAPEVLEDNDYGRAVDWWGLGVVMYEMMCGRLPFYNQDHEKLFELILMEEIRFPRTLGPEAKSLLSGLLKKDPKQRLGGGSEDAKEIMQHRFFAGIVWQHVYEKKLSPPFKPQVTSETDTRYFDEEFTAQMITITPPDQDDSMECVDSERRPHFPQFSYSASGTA

[18] = target: Protein kinase C delta type (Homo sapiens, UniProt Q05655); type: functional
[19] = target: Aurora kinase A (Homo sapiens, UniProt O14965); type: functional;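 further: value from the Navigating the Kinome kinase panel profiling, panel entry STK6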
[20] = target: Serine/threonine-protein kinase pim-2 (Homo sapiens, UniProt Q9P1W9); type: functional;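 further: value comes from a broad kinase panel profiling study in which PIM2 was one of the panel members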
Sequence of Serine/threonine-protein kinase pim-2 (Q9P1W9 whole entry): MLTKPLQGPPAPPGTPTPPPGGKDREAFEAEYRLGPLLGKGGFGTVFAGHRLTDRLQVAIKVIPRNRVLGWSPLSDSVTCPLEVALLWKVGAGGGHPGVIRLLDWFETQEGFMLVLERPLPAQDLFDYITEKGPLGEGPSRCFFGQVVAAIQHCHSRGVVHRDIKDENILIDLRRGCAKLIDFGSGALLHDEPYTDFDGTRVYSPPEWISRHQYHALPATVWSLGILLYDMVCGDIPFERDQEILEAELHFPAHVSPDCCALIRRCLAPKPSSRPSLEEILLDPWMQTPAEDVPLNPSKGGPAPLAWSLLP

[21] = target: Insulin receptor (Homo sapiens, UniProt P06213); type: functional;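 further: insulin receptor kinase tested as one member of a kinome-wide kinase panel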
Sequence of Insulin receptor (P06213 28-758 limits assumed): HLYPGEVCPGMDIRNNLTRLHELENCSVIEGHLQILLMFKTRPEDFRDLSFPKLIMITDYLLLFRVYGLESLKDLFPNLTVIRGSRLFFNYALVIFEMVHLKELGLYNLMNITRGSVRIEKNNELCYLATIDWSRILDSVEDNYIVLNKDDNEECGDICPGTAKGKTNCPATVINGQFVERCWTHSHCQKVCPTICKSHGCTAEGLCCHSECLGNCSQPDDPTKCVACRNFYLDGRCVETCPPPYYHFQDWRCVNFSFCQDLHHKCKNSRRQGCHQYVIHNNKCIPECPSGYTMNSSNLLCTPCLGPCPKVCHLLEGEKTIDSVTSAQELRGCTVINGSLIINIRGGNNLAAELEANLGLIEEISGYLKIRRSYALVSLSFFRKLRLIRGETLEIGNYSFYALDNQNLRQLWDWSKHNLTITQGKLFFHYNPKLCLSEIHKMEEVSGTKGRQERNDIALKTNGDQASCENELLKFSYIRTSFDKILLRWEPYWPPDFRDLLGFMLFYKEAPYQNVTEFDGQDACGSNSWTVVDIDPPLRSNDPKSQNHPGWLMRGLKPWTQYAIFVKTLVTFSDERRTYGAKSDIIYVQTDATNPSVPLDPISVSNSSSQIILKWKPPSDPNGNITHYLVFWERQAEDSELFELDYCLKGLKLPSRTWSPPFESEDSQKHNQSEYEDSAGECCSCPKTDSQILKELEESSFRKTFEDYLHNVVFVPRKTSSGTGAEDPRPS
Sequence of Insulin receptor (P06213 763-1382 limits assumed): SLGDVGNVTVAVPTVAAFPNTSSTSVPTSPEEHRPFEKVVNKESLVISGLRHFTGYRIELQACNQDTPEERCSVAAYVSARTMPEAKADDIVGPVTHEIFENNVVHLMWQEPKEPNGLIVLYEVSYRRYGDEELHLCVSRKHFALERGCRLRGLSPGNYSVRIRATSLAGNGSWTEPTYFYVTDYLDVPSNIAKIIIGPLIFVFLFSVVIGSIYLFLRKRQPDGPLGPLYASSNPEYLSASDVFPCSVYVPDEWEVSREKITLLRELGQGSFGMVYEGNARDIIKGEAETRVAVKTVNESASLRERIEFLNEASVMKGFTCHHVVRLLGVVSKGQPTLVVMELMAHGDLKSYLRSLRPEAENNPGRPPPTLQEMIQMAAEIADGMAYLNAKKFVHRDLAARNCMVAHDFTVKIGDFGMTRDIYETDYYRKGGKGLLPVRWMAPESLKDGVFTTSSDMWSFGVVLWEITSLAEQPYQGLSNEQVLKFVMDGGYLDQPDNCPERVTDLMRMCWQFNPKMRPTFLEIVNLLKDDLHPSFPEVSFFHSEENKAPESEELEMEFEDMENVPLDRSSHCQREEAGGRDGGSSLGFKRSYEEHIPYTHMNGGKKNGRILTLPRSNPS

[22] = target: Ribosomal protein S6 kinase alpha-5 (Homo sapiens, UniProt O75582); type: functional
[23] = target: Mitogen-activated protein kinase kinase kinase kinase 2 (Homo sapiens, UniProt Q12851); type: functional;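 further: measured as one member of a kinome-wide kinase panel, with MAP4K2 as the panel entry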
[24] = target: Mitogen-activated protein kinase 8 (Homo sapiens, UniProt P45983); type: functional;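 further: value comes from one member of a kinome-wide kinase profiling panel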
[25] = target: Aurora kinase B (Homo sapiens, UniProt Q96GD4); type: functional

Question: For NC(=O)Cn1cc(-c2cc(-c3cc4ccccc4s3)c3[nH]ncc3c2)c2nc(N)ncc21, which Ki [1] is on record?
Answer: 1 µM (active)

Question: What about the Ki [2] of the same molecule?
Answer: > 2.51 µM (inactive)

Question: What about the Ki [3] of the same molecule?
Answer: 3.98 µM (active)

Question: What about the Ki [4] of the same molecule?
Answer: 2.51 µM (active)

Question: And the Ki [5]?
Answer: 5.01 µM (active)

Question: And the Ki [6]?
Answer: > 2 µM (inactive)

Question: And the Ki [7]?
Answer: > 10 µM (inactive)

Question: And the Ki [8]?
Answer: 0.1 µM (active)

Question: What about the Ki [9] of the same molecule?
Answer: > 2 µM (inactive)

Question: And the Ki [10]?
Answer: > 10 µM (inactive)

Question: What about the Ki [11] of the same molecule?
Answer: 0.794 µM (active)

Question: What about the Ki [12] of the same molecule?
Answer: 0.398 µM (active)

Question: And the Ki [13]?
Answer: > 1.26 µM (inactive)

Question: And the Ki [14]?
Answer: > 1.58 µM (inactive)

Question: And the Ki [15]?
Answer: > 2 µM (inactive)

Question: What about the Ki [16] of the same molecule?
Answer: > 2.51 µM (inactive)

Question: What about the Ki [17] of the same molecule?
Answer: > 7.94 µM (inactive)

Question: And the Ki [18]?
Answer: 5.01 µM (active)

Question: What about the Ki [19] of the same molecule?
Answer: 1.26 µM (active)

Question: And the Ki [20]?
Answer: > 1.58 µM (inactive)

Question: And the Ki [21]?
Answer: > 5.01 µM (inactive)

Question: What about the Ki [22] of the same molecule?
Answer: > 2 µM (inactive)

Question: What about the Ki [23] of the same molecule?
Answer: 0.501 µM (active)

Question: What about the Ki [24] of the same molecule?
Answer: 0.126 µM (active)

Question: What about the Ki [25] of the same molecule?
Answer: 3.98 µM (active)
